Data as given in publication PMC12508156, “Non-canonical dihydrolipoyl transacetylase promotes chemotherapy resistance via mitochondrial tetrahydrofolate signaling” (Nature Communications, 2025).
Where “and” joins values, the source holds several entries; their conditions need not be identical. Equal values may be shown once.

How the values were obtained:
A549cisR cells = assay: Apoptotic cell death (annexin V/PI staining); format: cell-based, human; settings: cisplatin 2 μg/ml, 48 h, n=1-4: biological replicates, listed as cis
NADPH = NADPH level (NADP/NADPH-Glo); format: cell-based, human
Protocol: Cellular metabolic states were examined through various assays. To gauge the levels of total intracellular or mitochondrial reactive oxygen species (ROS), cells were stained with CM-H2DCFDA or mitoSOX, respectively. Intracellular H2O2, NADPH, acetyl-CoA, and GSH/GSSG ratios were quantified using commercial assay kits as listed in the Reagents. Intracellular ATP levels were determined utilizing the ATP bioluminescent somatic cell assay and normalized to the total protein concentrations. The de novo synthesized RNA and proteins were assessed in cancer cells using commercial assays following the manufacturer’s protocols. In brief, O-propargyl-puromycin or uridine analog, 5-EU, was applied to stop translation or modify RNA. Polypeptides or modified RNA were measured using fluorescent azide with Ex/Em at 494/521 nm. PDC activity was determined by measuring the reduction of NAD+ to NADH during the conversion of pyruvate into acetyl-CoA. […]
A549cisR (a) and KB-3-1cisR (b) cells were transduced with control or […]
µg/ml; KB-3-1cisR: 5 µg/ml) for 24 h. The GSH/GSSG ratio and relative NADPH levels were measured using GSH/GSSG-Glo Assay and NADP/NADPH-Glo Assay, respectively. Error bars represent SD and are from 4 independent biological replicates for the upper panels of (a,b) and 3 for the lower panels of (a,b). P values were determined by one-way ANOVA.
(1 picture or pasted object on this page, not shown here)

protein synthesis = assay: Global protein synthesis (O-propargyl-puromycin); format: cell-based, human
Protocol: Cellular metabolic states were examined through various assays. To gauge the levels of total intracellular or mitochondrial reactive oxygen species (ROS), cells were stained with CM-H2DCFDA or mitoSOX, respectively. Intracellular H2O2, NADPH, acetyl-CoA, and GSH/GSSG ratios were quantified using commercial assay kits as listed in the Reagents. Intracellular ATP levels were determined utilizing the ATP bioluminescent somatic cell assay and normalized to the total protein concentrations. The de novo synthesized RNA and proteins were assessed in cancer cells using commercial assays following the manufacturer’s protocols. In brief, O-propargyl-puromycin or uridine analog, 5-EU, was applied to stop translation or modify RNA. Polypeptides or modified RNA were measured using fluorescent azide with Ex/Em at 494/521 nm. PDC activity was determined by measuring the reduction of NAD+ to NADH during the conversion of pyruvate into acetyl-CoA.

[1] = system: lung cancer patient-derived xenograft tumors; assay: IHC of lung cancer PDX tumors (Ac-K44 MTHFD2, MT-CO2, DLAT); format: in vivo, athymic nu/nu mice; set-up: key: IHC intensity score 0 to 3+; settings: lung cancer PDX tumors (Figure 8M)
Description: Formalin-fixed and paraffin-embedded tumor tissue specimens from HNSCC and NSCLC patients were obtained from the […] Cancer Tissue and Pathology Shared Resources. The Institutional Review Board (IRB) of Emory University approved using human specimens (IRB00003208 - HNSCC, IRB00098377 - NSCLC). Clinical samples were collected with informed consent according to the Health Insurance Portability and Accountability Act. Patients' clinical information was obtained through the […] Technology Applications Shared Resource. Tumors from HNSCC or NSCLC patients who received chemotherapy-containing regimens were used. Immunohistochemistry (IHC) staining of DLAT, acetyl-[…] MTHFD2, MT-CO2, and Ki-67 was performed based on the established protocol. Antigen retrieval was conducted in Tris-EDTA (pH 9.0) for acetyl-[…] MTHFD2 and MT-CO2 and sodium citrate (pH 6.0) for the remaining antigens. […] Assessment of positive DLAT, MT-CO2, and acetyl-[…] MTHFD2 staining intensity within tumor cells was performed using a scoring system ranging from 0 to 3+ based on IHC signal intensity. Mice were subcutaneously injected into the flank with 1 × 10^6 KB-3-1^cisR cells with or without DLAT knockdown. […] Tumors were collected at the experimental endpoint, and tumor proliferation was assessed using Ki-67 IHC staining. The localization, penetration, and efficacy of DMp39 were monitored by assessing the acetyl-[…] levels in tumors and fluorescence imaging analysis using an IVIS imaging system. Drug-induced organ toxicities, including splenomegaly, liver damage, and kidney injury, were monitored by assessing spleen index, alanine transaminase activity, and cystatin C levels in plasma.

## N.N.[Cl][Pt][Cl] [cisplatin]
A549cisR cells; A549cisR pLKO.1+pLHCX
  Apoptotic death: 7.05 and 8.53 and 8.99 and 9.51
A549cisR cells; A549cisR shDLAT+DLAT(WT) rescue
  Apoptotic death: 7.31 and 8.35 and 8.93 and 10.11
NADPH; A549cisR cells, pLKO.1, n=1
  NADPH: 0.7373
NADPH; A549cisR cells, pLKO.1, n=2
  NADPH: 0.7802
NADPH; A549cisR cells, pLKO.1, n=3
  NADPH: 0.7845
NADPH; A549cisR cells, shDLAT, n=1
  NADPH: 0.3926
NADPH; A549cisR cells, shDLAT, n=2
  NADPH: 0.3967
NADPH; A549cisR cells, shDLAT, n=3
  NADPH: 0.3159
NADPH; A549cisR, CTL, sheet Figure 5G, replicate n=1
  NADPH: 0.971
NADPH; A549cisR, CTL, sheet Figure 5G, replicate n=2
  NADPH: 0.9727
NADPH; A549cisR, CTL, sheet Figure 5G, replicate n=3
  NADPH: 1.056
NADPH; A549cisR, shDLAT+Flag-MTHFD2 (K44Q), sheet Figure 5G, replicate n=1
  NADPH: 1.569
NADPH; A549cisR, shDLAT+Flag-MTHFD2 (K44Q), sheet Figure 5G, replicate n=2
  NADPH: 1.336
NADPH; A549cisR, shDLAT+Flag-MTHFD2 (K44Q), sheet Figure 5G, replicate n=3
  NADPH: 1.475
NADPH; A549cisR, shDLAT+Flag-MTHFD2 (K44R), sheet Figure 5G, replicate n=1
  NADPH: 0.5654
NADPH; A549cisR, shDLAT+Flag-MTHFD2 (K44R), sheet Figure 5G, replicate n=2
  NADPH: 0.5995
NADPH; A549cisR, shDLAT+Flag-MTHFD2 (K44R), sheet Figure 5G, replicate n=3
  NADPH: 0.6728
NADPH; A549cisR, shDLAT, sheet Figure 5G, replicate n=1
  NADPH: 0.5978
NADPH; A549cisR, shDLAT, sheet Figure 5G, replicate n=2
  NADPH: 0.6166
NADPH; A549cisR, shDLAT, sheet Figure 5G, replicate n=3
  NADPH: 0.6336
NADPH; KB-3-1cisR cells, pLKO.1, n=1
  NADPH: 0.8565
NADPH; KB-3-1cisR cells, pLKO.1, n=2
  NADPH: 0.8236
NADPH; KB-3-1cisR cells, pLKO.1, n=3
  NADPH: 0.8268
NADPH; KB-3-1cisR cells, shDLAT, n=1
  NADPH: 0.3931
NADPH; KB-3-1cisR cells, shDLAT, n=2
  NADPH: 0.4089
NADPH; KB-3-1cisR cells, shDLAT, n=3
  NADPH: 0.429
NADPH; KB-3-1cisR, CTL, sheet Figure 5G, replicate n=1
  NADPH: 0.9984
NADPH; KB-3-1cisR, CTL, sheet Figure 5G, replicate n=2
  NADPH: 0.9855
NADPH; KB-3-1cisR, CTL, sheet Figure 5G, replicate n=3
  NADPH: 1.016
NADPH; KB-3-1cisR, shDLAT+Flag-MTHFD2 (K44Q), sheet Figure 5G, replicate n=1
  NADPH: 1.788
NADPH; KB-3-1cisR, shDLAT+Flag-MTHFD2 (K44Q), sheet Figure 5G, replicate n=2
  NADPH: 1.788
NADPH; KB-3-1cisR, shDLAT+Flag-MTHFD2 (K44Q), sheet Figure 5G, replicate n=3
  NADPH: 1.859
NADPH; KB-3-1cisR, shDLAT+Flag-MTHFD2 (K44R), sheet Figure 5G, replicate n=1
  NADPH: 0.4153
NADPH; KB-3-1cisR, shDLAT+Flag-MTHFD2 (K44R), sheet Figure 5G, replicate n=2
  NADPH: 0.3927
NADPH; KB-3-1cisR, shDLAT+Flag-MTHFD2 (K44R), sheet Figure 5G, replicate n=3
  NADPH: 0.4088
NADPH; KB-3-1cisR, shDLAT, sheet Figure 5G, replicate n=1
  NADPH: 0.404
NADPH; KB-3-1cisR, shDLAT, sheet Figure 5G, replicate n=2
  NADPH: 0.4217
NADPH; KB-3-1cisR, shDLAT, sheet Figure 5G, replicate n=3
  NADPH: 0.4378
Protein synthesis; A549cisR, pLKO.1, n=1 (Figure 3B)
  Global protein synthase: 73.5
Protein synthesis; A549cisR, pLKO.1, n=2 (Figure 3B)
  Global protein synthase: 70.6
Protein synthesis; A549cisR, pLKO.1, n=3 (Figure 3B)
  Global protein synthase: 67.1
Protein synthesis; A549cisR, shDLAT, n=1 (Figure 3B)
  Global protein synthase: 76.2
Protein synthesis; A549cisR, shDLAT, n=2 (Figure 3B)
  Global protein synthase: 75.5
Protein synthesis; A549cisR, shDLAT, n=3 (Figure 3B)
  Global protein synthase: 73.3
Protein synthesis; KB-3-1cisR, pLKO.1, n=1 (Figure 3B)
  Global protein synthase: 101
Protein synthesis; KB-3-1cisR, pLKO.1, n=2 (Figure 3B)
  Global protein synthase: 98.7
Protein synthesis; KB-3-1cisR, pLKO.1, n=3 (Figure 3B)
  Global protein synthase: 101
Protein synthesis; KB-3-1cisR, shDLAT, n=1 (Figure 3B)
  Global protein synthase: 92.8
Protein synthesis; KB-3-1cisR, shDLAT, n=2 (Figure 3B)
  Global protein synthase: 100
Protein synthesis; KB-3-1cisR, shDLAT, n=3 (Figure 3B)
  Global protein synthase: 92.4
[1]; n=1
  Ac-K44 (IHC score): 2
  DLAT (IHC score): 1
  MT-CO2 (IHC score): 3
[1]; n=2
  Ac-K44 (IHC score): 2
  DLAT (IHC score): 2
  MT-CO2 (IHC score): 3
[1]; n=3
  Ac-K44 (IHC score): 3
  DLAT (IHC score): 3
  MT-CO2 (IHC score): 3
[1]; n=4
  Ac-K44 (IHC score): 3
  DLAT (IHC score): 2
  MT-CO2 (IHC score): 2
[1]; n=5
  Ac-K44 (IHC score): 2
  DLAT (IHC score): 2
  MT-CO2 (IHC score): 3
